Data taken from PMC7811517, “Human neuronal signaling and communication assays to assess functional neurotoxicity” (Archives of Toxicology, 2020).
Values joined by “and” are separate entries in the source; they are usually repeats but may differ in a detail not shown here. Equal entries are not always repeated. “Also recorded” adds a separate entry of the source. Where two headings read alike, the source gives them in different places.

Assays:
[1] = test system: P2X receptors; assay: Ca2+-imaging of LUHMES neurons, P2X receptor antagonists against ATP or α,β-meATP response; format: cell-based, human; conditions: for pIC50 on the response triggered by ATP: 1 µM ATP (~EC75)
Procedure: (§1) The signals of individual cells could not be captured. […] The total recording never exceeded 8 min.
(§2) (Ritz et al. [2015]). […].

[2] = test system: LUHMES neurons; format: cell-based, human
Procedure: as §1

[3] = target: dopamine transporter (DAT) (Homo sapiens, UniProt Q01959); format: cell-based
Sequence of dopamine transporter (DAT) (Q01959 whole entry): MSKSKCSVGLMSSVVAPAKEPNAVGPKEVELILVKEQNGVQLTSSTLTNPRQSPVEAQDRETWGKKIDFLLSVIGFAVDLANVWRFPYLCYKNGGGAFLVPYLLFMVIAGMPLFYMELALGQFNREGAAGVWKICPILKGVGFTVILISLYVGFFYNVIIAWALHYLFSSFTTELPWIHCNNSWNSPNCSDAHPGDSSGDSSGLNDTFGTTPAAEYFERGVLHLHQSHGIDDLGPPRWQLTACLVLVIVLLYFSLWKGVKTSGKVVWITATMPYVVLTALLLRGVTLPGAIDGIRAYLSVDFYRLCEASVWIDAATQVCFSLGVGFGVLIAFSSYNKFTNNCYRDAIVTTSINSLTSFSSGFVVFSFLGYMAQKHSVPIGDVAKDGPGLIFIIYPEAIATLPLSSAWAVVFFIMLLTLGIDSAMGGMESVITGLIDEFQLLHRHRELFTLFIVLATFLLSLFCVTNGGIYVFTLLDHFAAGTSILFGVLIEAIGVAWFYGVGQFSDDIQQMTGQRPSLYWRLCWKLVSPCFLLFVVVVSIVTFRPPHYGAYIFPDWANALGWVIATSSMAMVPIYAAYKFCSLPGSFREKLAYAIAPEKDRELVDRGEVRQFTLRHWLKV
Procedure: LUHMES cells were differentiated for 6 days in a 24-well format and then treated with the indicated DAT inhibitors. […] After 10 min at 37 °C, the supernatant was removed and cells were washed with PBS. Then lysis buffer was added (PBS containing 0.2% Triton X-100). The amount of radioactive label taken up by the cells as well as the residual activity in the cell supernatant (plus washing buffer) was measured on a scintillation counter.

[4] = test system: P2X receptors; assay: Ca2+-imaging of LUHMES neurons, P2 receptor agonist responses; format: cell-based, human; conditions: for pEC50 in Ca2+-imaging: LUHMES neurons, agonist concentration-response
Procedure: as §1
(Ritz et al. [2015]). The logarithm of the half-maximal effective concentration (logEC50) between 0 and the upper limit (d), which was set to 1, is represented by ẽ, x denotes the concentration and b stands for the slope parameter (Ritz et al. [2015]).

[5] = test system: LUHMES neurons; assay: Manual patch clamp recordings of LUHMES neurons; format: cell-based, human
Text: Manual patch clamp was executed with an EPC 10 USB patch clamp amplifier and PatchMaster Software (version 2 × 90.5; HEKA Elektronik, Lambrecht, Germany). […] Intracellular solution contained [mM]: 107 K-gluconate, 10 KCl, 1 MgCl2, 10 HEPES, 5 EGTA, 4 Na2ATP and 0.2 NaGTP, pH 7.20. Recordings were obtained at room temperature. The cells were kept at a holding potential of − 70 mV. In voltage clamp mode NaV and voltage-gated potassium (KV) channels were activated for 300 ms by voltage pulses ranging from − 70 to + 70 mV in + 10 mV steps after a hyperpolarizing step to − 120 mV for 200 ms. To investigate the firing behavior, cells were stimulated in current clamp mode by hyper- and depolarizing current pulses of 300 ms duration. The pulse protocol was executed at 0.2 Hz. For agonist tests in current clamp and voltage clamp mode, cells were kept at a holding potential of − 70 mV and the compounds were applied for 5 s.
The raw data of the manual patch clamp recordings were analyzed in scripts written in R. For leak subtraction, the P/4 algorithms of PatchMaster and QPatch Software were used in the voltage clamp recordings for manual and automated patch clamp experiments, respectively.

[6] = test system: NaV channels; assay: Automated patch clamp recordings (QPatch) of NaV channel currents in LUHMES neurons; format: cell-based, human
[7] = test system: NaV1.1; conditions: ref McCormack et al. [2013]; cited from earlier work
[8] = test system: NaV1.3; conditions: ref McCormack et al. [2013]; cited from earlier work
[9] = test system: NaV1.2; conditions: ref McCormack et al. [2013]; cited from earlier work
[10] = test system: NaV1.6; conditions: ref McCormack et al. [2013]; cited from earlier work
[11] = test system: NaV1.7; conditions: ref McCormack et al. [2013]; cited from earlier work
[12] = test system: rat hippocampal neurons; conditions: cited from earlier work
[13] = test system: NaV channels; assay: Ca2+-imaging of LUHMES neurons, NaV channel toxicants; format: cell-based, human
Procedure: as §1, §2

[14] = test system: mice; conditions: mouse, in vivo; cited from earlier work
[15] = target: human P2X3 receptors; conditions: ref Garcia-Guzman et al. [1997]; cited from earlier work
[16] = 1 µM DA and 0.3 µM AMP, NNC 55–0396 30 µM

O=C(O)c1cc(C(=O)O)c(C(=O)N(Cc2cccc(Oc3ccccc3)c2)[C@H]2CCCc3ccccc32)cc1C(=O)O [A-317491]
block of the response of ATP [1]: up to 40%
effect on ATP signals [1]: only a weak partial effect
effect on the response to α,β-meATP [1]: potently and completely blocked
pIC50 on the response triggered by α,β-meATP [1]: 6.31 ± 0.05

CC(N)Cc1ccccc1 (centres unmarked) [AMP, amphetamine]
main oscillation frequency ([2]; 1 µM DA (n = 6), 0.3 µM AMP (n = 10), FFT analysis): 0.234 ± 0.007 Hz and 0.2–0.23 Hz
recordings with oscillations of the Ca2+-imaging signal ([2]; 1 µM DA (n = 125), 0.3 µM AMP (n = 50)): 94.0%
effect on uptake of [3H]DA [3]: inhibited; also recorded: significantly reduced

Nc1ncnc2c1ncn2[C@@H]1O[C@H](COP(=O)(O)OP(=O)(O)OP(=O)(O)O)[C@@H](O)[C@H]1O [ATP, Adenosine 5'-triphosphate]
pEC50 in Ca2+-imaging [4]: 7.35 ± 0.08
half-life of the fast decrease of the fluorescence signal ([4]; at 100 µM ATP): ~ 8 s
response to agonist application ([5]; 100 µM ATP for 5 s, current clamp): triggered action potential firing

Nc1ncnc2c1ncn2[C@@H]1O[C@H](COP(=O)(O)OP(=O)(O)OP(=O)(O)O)[C@@H](OC(=O)c2ccc(C(=O)c3ccccc3)cc2)[C@H]1O [BzATP]
pEC50 in Ca2+-imaging [4]: 7.76 ± 0.11

NCCc1ccc(O)c(O)c1 [DA, dopamine]
main oscillation frequency [2]: 0.201 ± 0.002 Hz and 0.2–0.23 Hz
recordings with oscillations of the Ca2+-imaging signal [2]: 61.6% and 62%

O=C(Nc1ccc(S(=O)(=O)Nc2nccs2)cc1)C(c1ccccc1)c1ccccc1 [ICA-121431]
pIC50, NaV current with 50% of channels inactivated ([6]; prepulse to −55 mV): 6.33 ± 0.10 and 6.3
IC50 [7]: 23 nM
IC50 [8]: 13 nM
IC50 [9]: 240 nM
IC50 [10]: 13000 nM
IC50 [11]: 10000 nM

CCN(CC)CC(=O)Nc1c(C)cccc1C [Lidocaine, lidocaine]
pIC50, NaV current, 1st pulse [6]: 3.03 ± 0.07
pIC50, NaV current, 10th pulse [6]: 3.57 ± 0.06
pIC50 in rat hippocampal neurons [12]: ~ 3.4

CC(C)[C@H]1c2ccc(F)cc2CC[C@@]1(CCN(C)CCCc1nc2ccccc2[nH]1)OC(=O)C1CC1.Cl.Cl [NNC 55–0396, (1S,2S)-2-(2-(N-[(3-benzimidazol-2-yl)propyl]-N-methylamino)ethyl)-6-fluoro-1,2,3,4-tetrahydro-1-isopropyl-2-naphtyl cyclopropanecarboxylate dihydrochloride]
signal amplitude compared to control, response to AMP [2]: 2.1 ± 0.02%
signal amplitude compared to control, response to DA [2]: 3.0 ± 0.02%
inhibition of amplitude, DA/AMP induced oscillations [2, 16]: > 95%
signal amplitude compared to control, DA/AMP induced oscillations [2, 16]: 2–3%

Nc1ncnc2c1ncn2[C@@H]1O[C@H](COP(=O)(O)OP(=O)(O)OP(=O)(O)O)[C@H]2OC3(O[C@H]21)C([N+](=O)[O-])=CC(=[N+]([O-])[O-])C=C3[N+](=O)[O-] (some centres unmarked) [TNP-ATP, 2′,3′-O-(2,4,6-trinitrophenyl) adenosine 5′-triphosphate]
pIC50 on the response triggered by α,β-meATP ([1]; 0.1 µM α,β-meATP (~EC75)): 7.5
pIC50 on the response triggered by ATP [1]: 6.1 and 6.05 ± 0.06

NC1=N[C@H](O)[C@H]2[C@H]3O[C@]4(O)O[C@@H]([C@@H](O)[C@@]2(N1)[C@@H]4O)[C@]3(O)CO [TTX, tetrodotoxin]
pIC50 on the response triggered by VTD [13]: 7.9 and 7.93 ± 0.06
pIC50, NaV current (pulse not specified) [6]: ~ 7.2
pIC50, NaV current, 1st pulse [6]: 7.23 ± 0.05
pIC50, NaV current, 10th pulse [6]: 7.26 ± 0.05
effect on rapid transient inward currents [5]: blocked
signal amplitude compared to control, response to AMP [2]: 21% and 20.5 ± 0.02%
signal amplitude compared to control, response to DA [2]: 69% and 68.6 ± 0.06%

COc1ccc(C(=O)O[C@H]2CC[C@@]3(C)[C@@H]4CC[C@H]5[C@]6(O)C[C@H](O)[C@@]7(O)[C@@H](CN8C[C@@H](C)CC[C@H]8[C@@]7(C)O)[C@]6(O)C[C@@]53O[C@]24O)cc1OC [VTD, veratridine]
pEC50, rise of [Ca2+]i ([13]; LUHMES neurons): 5.4 and 5.38 ± 0.03
effect on action potential duration ([5]; 1 µM VTD, current clamp, n = 4): reversibly increased the action potential duration

COC(=O)[C@H]1[C@@H](OC(=O)c2ccccc2)C[C@@H]2CC[C@H]1N2C [cocaine]
effect on uptake of [3H]DA [3]: inhibited; also recorded: significantly reduced

COC(=O)C1=C(C)NC(C)=C(C(=O)OC)C1c1ccccc1[N+](=O)[O-] [nifedipine]
signal amplitude compared to control, response to AMP [2]: 51% and 51.4 ± 0.03%
signal amplitude compared to control, response to DA [2]: 70% and 70.2 ± 0.05%

CN1Cc2c(N)cccc2C(c2ccccc2)C1 (centres unmarked) [nomifensine]
effect on oscillations induced by AMP and DA [2]: blocked

C[C@@H]1C[C@@H]2O[C@@H]3[C@@H](C)[C@H](O)[C@@H]4O[C@@]5(CCCO5)[C@@H](C)[C@H](C)[C@H]4O[C@H]3C[C@H]2O[C@H]2C[C@H]3O[C@H]4C/C=C\C[C@H]5O[C@H]6C=C[C@H]7O[C@H]8[C@H](O)[C@H]9O[C@@H](/C=C/[C@H](O)CO)C=CC[C@@H]9O[C@@H]8C[C@@H]7O[C@@H]6C=C[C@@H]5O[C@@H]4C[C@@H](O)[C@]3(C)O[C@@H]2C1 [pCTX-2, pacific ciguatoxin-2]
amplitude of the evoked response [13]: 1779 ± 50 AU
effect compared to control [13]: no effect
effect on [Ca2+]i / Ca2+-imaging signal [13]: induced an increase of the baseline and oscillations; also recorded: increased [Ca^2+]i
effect on the amplitude induced by 3 µM VTD [13]: significantly reduced
acute toxicity (mice) [14]: 2.3 µg/kg

Cc1ccc(C(=O)Nc2ccc(S(=O)(=O)O)c3cc(S(=O)(=O)O)cc(S(=O)(=O)O)c23)cc1NC(=O)c1cccc(NC(=O)Nc2cccc(C(=O)Nc3cc(C(=O)Nc4ccc(S(=O)(=O)O)c5cc(S(=O)(=O)O)cc(S(=O)(=O)O)c45)ccc3C)c2)c1 [suramin]
pIC50 on the response triggered by α,β-meATP ([1]; 0.1 µM α,β-meATP (~EC75)): 4.51 ± 0.03 and 4.5
pIC50 on the response triggered by ATP [1]: 4.09 ± 0.03 and 4.1
pIC50 for human P2X3 receptors [15]: approximately 4.8

Nc1ncnc2c1ncn2[C@@H]1O[C@H](COP(=O)(O)CP(=O)(O)OP(=O)(O)O)[C@@H](O)[C@H]1O [α,β-meATP]
pEC50 in Ca2+-imaging [4]: 7.52 ± 0.03 and 7.5
pEC50, amplitude normalized to K+ amplitude ([4]; normalized to 30 mM K+ application, 5 differentiations): 7.58 ± 0.04

microcystin-LF
effect alone in Ca2+-imaging [13]: no significate effect; also recorded: did not show any effects
effect on the response to 3 µM VTD [13]: no significate effect; also recorded: did not show any effects
